{"source": "patent US8211893B2", "about": "“Protein kinase C zeta inhibition to treat diabetic retinopathy” (The Penn State Research Foundation, priority 2006, dated 2012)", "key": {"[1]": {"system": "bovine retinal endothelial cells (BREC)", "assay": "In vitro permeability assay, VEGF stimulated 70 kDa RITC-dextran flux across BREC monolayer on transwell filters", "assay_type": "cell-based", "conditions": "for effect on VEGF stimulated endothelial permeability to 70 kDa RITC-dextran: peptide inhibitor 50 nM", "description": "Endothelial cells are grown to confluence on transwell filters. After the cells have grown to confluence, an additional 2 to 4 days is necessary to allow formation of a tight barrier. This may vary depending on the cell preparation.\nSolute flux is measured by applying 10 micromolar or 20 micromolar RITC-dextran or FITC-BSA to the apical chamber of inserts with a confluent endothelial cell monolayer. The specific experiment may dictate when to perturb the system with, for example, a PKC inhibitor, relative to the time of measuring flux. Remember to consider the time for the perturbation to effect transport rates, for example, time for synthesis and assembly or disassembly of the junctional complex.\nOne half-hour after addition of fluorescent solute, 50 microliter samples are taken from the basolateral chamber. This is continued on the half-hour for up to four hours. The samples are placed into the 96 well black/clear bottom plate. A sample is taken from the apical chamber at the last time point and also placed in the 96 well plate. […] Fluorescence of each aliquot is quantified on a fluorescence plate reader. We use a FluorImager 595. A blank sample with media only but no fluorescent marker should be used for background subtraction. The rate of diffusive flux (Po) is calculated by the following formula at each time point: Po=[(FA/Δt)VA]/(FLA) where Po=diffusive flux (cm/s); FA=basolateral fluorescence; FL=apical fluorescence; Δt=change in time; A=surface area of the filter (cm^2); VA=volume of the basolateral chamber (cm^3). Note that unless the volume removed from the basolateral chamber is replaced, the volume in the basolateral chamber changes for each time point calculated. The data may be reduced as a rate over the total time course of the experiment if the change remains linear. This is done by plotting the change in fluorescence accumulated in the basolateral chamber corrected for fluorescence in the apical chamber, volume and area versus time and then determining the slope of the straight line or rate of diffusive flux, Po.\nThe fluorescence obtained from each time point is normalized to the fluorescence in the apical chamber. Next this ratio is corrected for the volume in the bottom chamber and this corrected ratio is plotted verses time to determine the rate of fluorescent molecule accumulation by obtaining the slope. Finally, this slope is converted from minutes to seconds and divided by the area of the filter yielding the diffusive flux in cm/s.\nBovine retinal endothelial cells (BREC) are grown to confluence on transwell filters (Costar) and treated with hydrocortisone (100 nM) to induce barrier properties. PKC zeta peptide inhibitor (50 nM, Calbiochem) is applied to the cells 30 min before addition of fluorescent-labeled tracer and VEGF (50 ng/mL, R&D Systems) is applied to the cells for 15 min before addition of tracer. RITC-labeled 70 kDa dextran (Sigma) is used as a tracer for cell permeability measures and is applied to the apical chamber at 10 micromolar. Samples are drawn from the basolateral chamber over a 4 h time course and the rate of tracer accumulation is used to determine monolayer permeability, Po, in cm/s. FIG. 2 illustrates the results of the use the myristoylated peptide inhibitor of PKC zeta on endothelial permeability to 70 kDa RITC-dextran.\nBovine retinal endothelial cells (BREC) are grown to confluence on transwell filters (Costar) and treated with hydrocortisone (100 nM) to induce barrier properties. PKC zeta peptide inhibitor (PKCζ 1) of SEQ ID No. 1 (Calbiochem) is applied to the cells at concentrations of 6.25 nM, 12.5 nM, 25 nM, and 50 nM, 30 min before addition of fluorescent-labeled tracer and VEGF (50 ng/mL, R&D Systems) is applied to the cells for 15 min before addition of tracer. […]"}, "PKC-zeta [2]": {"target": "T1, PKC-zeta (Homo sapiens, UniProt Q05513)", "T1 sequence (Q05513 1-592)": "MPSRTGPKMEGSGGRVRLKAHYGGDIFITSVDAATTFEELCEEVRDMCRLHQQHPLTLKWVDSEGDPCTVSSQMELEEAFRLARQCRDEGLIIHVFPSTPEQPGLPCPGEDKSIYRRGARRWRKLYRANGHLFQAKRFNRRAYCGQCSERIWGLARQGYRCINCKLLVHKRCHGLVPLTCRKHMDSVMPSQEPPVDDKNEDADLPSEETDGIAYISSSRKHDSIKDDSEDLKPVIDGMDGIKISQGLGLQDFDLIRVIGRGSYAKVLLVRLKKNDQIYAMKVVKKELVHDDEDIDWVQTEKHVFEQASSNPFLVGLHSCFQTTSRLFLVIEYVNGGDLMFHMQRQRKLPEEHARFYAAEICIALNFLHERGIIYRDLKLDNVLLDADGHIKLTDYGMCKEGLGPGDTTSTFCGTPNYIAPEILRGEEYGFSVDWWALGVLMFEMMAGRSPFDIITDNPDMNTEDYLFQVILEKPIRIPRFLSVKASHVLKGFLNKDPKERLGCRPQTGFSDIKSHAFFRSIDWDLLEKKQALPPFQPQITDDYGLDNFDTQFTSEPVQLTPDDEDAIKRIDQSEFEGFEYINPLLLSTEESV", "assay": "IC50 determination for PKC-zeta", "assay_type": "biochemical", "conditions": "read-out: half-maximal inhibitory concentration, IC50, for PKC-zeta", "description": "Methods described in this example are used to determine the half-maximal inhibitory concentration, IC50, of a particular PKC zeta inhibitor. A PKC zeta inhibitor is incubated with […] in vitro by addition of the inhibitor to cultured BREC cells, followed by the addition of a labeled permeability marker, 70 kDa RITC dextran."}, "[3]": {"system": "retinal albumin flux after VEGF treatment", "assay": "In vivo VEGF induced retinal permeability, Evan's blue bound albumin flux", "conditions": "rat, intraocular injection with VEGF 50 ng, 5 h", "source_text": "Vascular permeability is quantified in this in vivo model by measuring albumin leakage form blood vessels into the retina. Evans blue is an acid dye of the diazo group that noncovalently binds to albumin in the blood, allowing the breakdown in blood-retinal barrier to be detected when increased vessel leakage is extravasated into the interstitial space.\nRats are used in this example and each animal is weighed and the body weight (BW) recorded for anaesthetic and dye injections. Each animal is anesthetized by intramuscular injection of 1 microliter/g BW a Ketamine/Xylazine mixture equal to […]/6.67 mg Xylazine/kg BW. […]\nBoth eyes are enucleated and bisected at the equator to harvest the retinas which are optionally dried thoroughly in a Speed-Vac for 5 hours. The weight of the retinas is measured with an analytical balance. […]\nThe obtained plasma samples are diluted 1:10000 with formamide. […] The absorbance in each well is measured at 620 and 740 nm with a plate reader. The background-subtracted absorbance (A620-A740) is calculated for each sample and the dye concentration is determined using the standard curve. […]\nThe PKC-zeta I1 is effective at reducing retinal albumin flux in vivo after VEGF treatment. […] Flux to albumin is measured using the albumin binding dye Evan's blue. […] Evan's blue is eluted from the retinas in formamide and read spectrophotometrically. […]"}, "BREC cultures": {"system": "BREC cultures", "assay": "Invitrogen Live/Dead assay, calcein AM and ethidium homodimer-1", "assay_type": "cell-based", "conditions": "10 micromolar, 24 h, confluent BREC, alone or with VEGF; listed as PKC-zeta I1", "description": "Cell viability is measured using the Invitrogen Live/Dead assay according to manufacturer's instructions. Confluent BREC cultures are treated with 10 micromolar PKC-zeta I1 for 24 h. Cell viability is measured with calcein AM incorporation and cell death is measured by ethidium homodimer-1 staining followed by fluorescence quantification on a Molecular Devices Gemini fluorescence plate reader."}, "PKC-zeta [4]": {"target": "T1, PKC-zeta", "assay": "In vitro screen for PKC zeta inhibitors, Kinase-Glo Luminescent Kinase assay with CREBtide substrate", "assay_type": "biochemical", "set-up": "purchased Biomol International SE-413", "conditions": "tested at 100 micromolar; relative to compound of formula (I)", "description": "A screen for PKCzeta inhibitors was developed using recombinant human enzyme from Biomol International (SE-413) and CREBtide (Biomol P195) as the substrate. PKCzeta is incubated for 8 min at 30° C. in 50 microliters of buffer containing 5 mM MgCl2, 100 micromolar Na3VO4, 100 micromolar NaP2O7, 1 mM NaF. 100 micromolar PMSF, 50 mM Tris (pH 7.5), 4 micrograms of phosphatidylserine, 50 micromolar ATP, and a substrate peptide, KRREILSRRPSYR. The substrate peptide may be chemically synthesized, recombinantly produced or obtained commercially by the trade name CREBtide. Approximately 9,000 compounds from the DIVERSet collection of the ChemBridge Corporation (San Diego, Calif.) were tested at a final concentration of 100 micromolar, using the Kinase-Glo™ Luminescent Kinase assay (Promega) to measure residual ATP levels after the kinase reaction as described by the manufacturer. Compounds are identified as having inhibitory activity when they reduce PCK zeta activity by at least 50% when tested at a concentration of 100 micromolar."}}, "note": "Entries after “also recorded” stand apart in the source; their conditions may differ. No end group written: not given here. *: point of attachment. Myristoyl = CCCCCCCCCCCCCC(=O)*", "data": [{"compound": "CN(C)CCCn1cc(C2=C(c3c[nH]c4ccccc34)C(=O)NC2=O)c2ccccc21", "note": "[bisindoylmaleimide I]", "values": [{"measurement": "effect on VEGF stimulated dextran permeability", "setting": "[1]; bisindoylmaleimide I 5 micromolar, 30 min before tracer, VEGF 50 ng/mL, BREC", "value": "partly reduces VEGF stimulated permeability"}]}, {"compound": "CCOC(=O)c1c(NC(C)=O)sc(/C(C)=N/O)c1-c1ccccc1", "note": "[formula (I), ethyl (5E)-2-acetylimino-5-[1-(hydroxyamino)ethylidene]-4-phenyl-thiophene-3-carboxylate]", "values": [{"measurement": "IC50", "setting": "PKC-zeta [2]", "value": 10, "unit": "µM"}, {"measurement": "effect on VEGF induced endothelial permeability in vitro", "setting": "[1]; PKC-zeta I1 at 10 and 25 micromolar, 30 min before tracer, VEGF 50 ng/mL", "value": "completely blocks VEGF induced endothelial permeability; also recorded: effectively blocks VEGF induced permeability in vitro"}, {"measurement": "effect on baseline endothelial permeability", "setting": "[1]; PKC-zeta I1 at 10 and 25 micromolar, no VEGF", "value": "reduces baseline permeability"}, {"measurement": "reduction of Evan's blue bound albumin flux", "setting": "[3]; about 10 micromolar final concentration in the eye", "value": 50, "unit": "%"}, {"measurement": "effect on VEGF induced permeability in vivo", "setting": "[3]; about 10 micromolar in the eye", "value": "blocks VEGF induced permeability in vivo"}, {"measurement": "cell death (ethidium homodimer-1 staining)", "setting": "BREC cultures", "value": "no increase in cell death; also recorded: does not alter cell viability or increase cell death"}, {"measurement": "cell viability (calcein AM incorporation)", "setting": "BREC cultures", "value": "no loss of cell viability; also recorded: does not alter cell viability"}]}, {"compound": "CCOC(=O)c1c(NC(=S)N2CCN(S(C)(=O)=O)CC2)sc(C)c1-c1ccccc1", "note": "[formula (III)]", "values": [{"measurement": "inhibits PKC zeta with x-fold greater efficacy than the compound of formula (I)", "setting": "PKC-zeta [4]", "value": 1.2, "unit": "fold"}]}, {"compound": "CC(C)OC(=O)c1c(-c2ccc(Cl)c(Cl)c2)csc1N", "note": "[formula (IV)]", "values": [{"measurement": "inhibits PKC zeta with x-fold greater efficacy than the compound of formula (I)", "setting": "PKC-zeta [4]", "value": 1.8, "unit": "fold"}]}, {"compound": "CCOC(=O)c1c(NC(C)=O)sc(C)c1-c1ccc(OC)cc1", "note": "[formula (V)]", "values": [{"measurement": "inhibits PKC zeta with x-fold greater efficacy than the compound of formula (I)", "setting": "PKC-zeta [4]", "value": 2.6, "unit": "fold"}]}, {"compound": "myr-SIYRRGARRWRKL (Myristoyl-SIYRRGARRWRKL)", "values": [{"measurement": "effect on VEGF stimulated endothelial permeability to 70 kDa RITC-dextran", "setting": "[1]; 30 min before tracer, VEGF 50 ng/mL, BREC", "value": "reduces and prevents a VEGF stimulated increase in permeability"}, {"measurement": "effect on VEGF stimulated endothelial permeability to 70 kDa RITC-dextran", "setting": "[1]; 30 min before tracer, VEGF 50 ng/mL, BREC, listed as myristoylated peptide inhibitor of PKC zeta", "value": "reduced or prevented permeability"}, {"measurement": "dose dependence of effect on VEGF stimulated endothelial permeability", "setting": "[1]; peptide inhibitor 6.25, 12.5, 25 and 50 nM, VEGF 50 ng/mL, BREC", "value": "reduces VEGF stimulated endothelial permeability in a dose dependent manner"}]}]}
